{"source": "patent EP0818467B1", "about": "“Aligned peptide array and a rational and rapid method for the detection of a binding or interaction site of a protein by using the same” (NEC CORPORATION, priority 1996, dated 1998)", "key": {"[1]": {"tested_on": "regulatory region of protein kinase C (PKC)", "experiment": "aligned peptide array membrane reacted with tritium-labeled phorbol ester, autoradiography", "assay_type": "binding", "conditions": "peptide segments of formula (III); phorbol ester labeled with tritium (3H)", "method": "First of all, an amino acid sequence corresponding to a portion of the regulatory region of protein kinase C (PKC) was divided as shown in the following formula (III), and the corresponding peptide segments were synthesized. Then, an aligned peptide array membrane was prepared in the same manner as given in Example 1. [formula]\n(§1) The aligned peptide array membrane was reacted with a phorbol ester labeled with tritium (^3H) and then brought into contact with a photographic film. Thus, the reaction spot was identified by autoradiography."}, "[2]": {"tested_on": "third peptide segment, in which one amino acid had been replaced", "experiment": "aligned peptide array membrane with one amino acid replaced in the third peptide segment, autoradiography", "assay_type": "binding", "conditions": "formula (IV): G (glycine) in the third peptide segment replaced by E (glutamate)", "method": "as §1\nIn the third peptide segment detected in Example 2, one amino acid was replaced as shown in the following formula (IV). Excepting this modification, detection was carried out in the same manner as in Example 2. [formula]"}}, "data": [{"compound": "CCCCCCCCCCCCCC(=O)O[C@@H]1[C@@H](C)[C@@]2(O)[C@@H](C=C(CO)C[C@]3(O)C(=O)C(C)=C[C@@H]23)[C@@H]2C(C)(C)[C@]12OC(C)=O", "note": "[phorbol ester]", "values": [{"measurement": "exposure to radiation at the position of the peptide segment", "setting": "[1]", "result": "exposure to radiation was observed at the position of the peptide segment corresponding to the third sequence segment of formula (III)"}, {"measurement": "exposure to radiation at the position of the peptide segment", "setting": "[2]", "result": "no exposure to radiation was observed at the position of the third peptide segment"}]}]}
